The results in this text go back to patent US8030336B2, “Nicotinamide-based kinase inhibitors” (YM Biosciences Australia Pty Ltd, priority 2002, dated 2011).

By inhibition is commonly meant the change of the read-out against control, counted positive when it falls.

The structures appear in SMILES notation. Some results are limits rather than exact numbers.

What all share (type): biochemical
One assay deals with T1, human JAK2 (Homo sapiens, UniProt O60674).
T1 construct: The kinase domain of human JAK2 was amplified from U937mRNA; His tag (from the pFastBac HTc vector) (N); made in house; host or cells: baculovirus; Sf9 for virus, High Five insect cells for production
T1 sequence (O60674 849-1124 limits assumed): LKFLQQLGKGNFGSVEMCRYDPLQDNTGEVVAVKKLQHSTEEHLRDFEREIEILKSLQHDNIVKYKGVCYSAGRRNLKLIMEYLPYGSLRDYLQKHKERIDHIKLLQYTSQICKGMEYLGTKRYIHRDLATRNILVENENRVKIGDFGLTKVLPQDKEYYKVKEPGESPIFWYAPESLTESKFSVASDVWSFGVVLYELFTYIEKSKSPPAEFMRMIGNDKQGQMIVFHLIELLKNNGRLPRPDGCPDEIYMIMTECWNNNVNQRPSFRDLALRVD
Description: JAK2 kinase assay (ELISA or Alphascreen). Particulars: read-out: Jak2 inhibition of enzyme activity. In a few lines:
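His-tagged human JAK2 kinase domain from baculovirus-infected insect cells, ~1.5 μg per assay, in 50 mM HEPES pH 7.5, 10 mM MgCl2, 150 mM NaCl, with 10 μM–1 mM ATP and 5 μM biotinylated peptide substrate. Phosphotyrosine detected by PY20 ELISA or AlphaScreen.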
(An ELISA detects its analyte on a solid surface through an enzyme-linked reagent.)

The target of the next assay is T2, human JAK3 (Homo sapiens, UniProt P52333).
T2 construct: The kinase domain of human JAK3 was amplified from U937mRNA; His tag (from the pFastBac HTb vector) (N); made in house; host or cells: baculovirus; Sf9 for virus, High Five insect cells for production
T2 sequence (P52333 822-1111 limits assumed): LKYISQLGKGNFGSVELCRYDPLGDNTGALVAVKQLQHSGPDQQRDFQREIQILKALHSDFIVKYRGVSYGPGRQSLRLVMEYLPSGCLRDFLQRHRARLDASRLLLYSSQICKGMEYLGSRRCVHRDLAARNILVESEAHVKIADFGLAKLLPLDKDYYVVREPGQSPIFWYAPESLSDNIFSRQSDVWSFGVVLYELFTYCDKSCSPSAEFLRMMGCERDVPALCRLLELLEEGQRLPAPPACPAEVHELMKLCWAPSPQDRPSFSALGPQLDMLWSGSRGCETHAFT
Description: JAK3 kinase assay (ELISA or Alphascreen). The following applies: read-out: Jak3 inhibition of enzyme activity. Summed up:
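His-tagged human JAK3 kinase domain from High Five cells, ~1.5 μg per assay, in 50 mM HEPES pH 7.5, 10 mM MgCl2, 150 mM NaCl, 10 μM-1 mM ATP, 5 μM biotinylated peptide substrate. Phosphotyrosine by PY20 ELISA or Alphascreen.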

The target in a further assay is T3, abl (Homo sapiens, UniProt P00519).
T3 sequence (P00519 242-493 limits assumed): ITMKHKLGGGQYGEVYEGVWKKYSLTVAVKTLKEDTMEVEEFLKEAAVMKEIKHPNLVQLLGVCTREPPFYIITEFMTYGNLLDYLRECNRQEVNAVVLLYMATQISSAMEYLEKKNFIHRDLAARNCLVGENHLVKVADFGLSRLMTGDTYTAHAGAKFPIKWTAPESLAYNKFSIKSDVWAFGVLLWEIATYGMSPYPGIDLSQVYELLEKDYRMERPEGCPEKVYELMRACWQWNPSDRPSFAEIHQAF
Description: abl kinase assay (ELISA or Alphascreen). Particulars: read-out: abl inhibition of enzyme activity. Summed up: (§1)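 Affinity-purified PTK domain (~1.5 μg) phosphorylated biotinylated peptide (5 μM final) in 50 mM HEPES pH 7.5, 10 mM MgCl2, 150 mM NaCl, 10 μM-1 mM ATP. Phosphotyrosine read by PY20 ELISA or Alphascreen.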

Another assay concerns the target fes (Homo sapiens, UniProt P07332). Briefly: fes kinase assay (ELISA or Alphascreen). Particulars: read-out: fes inhibition of enzyme activity. Summed up:
as §1

The next assay addresses T4, fms (Homo sapiens, UniProt P07333).
T4 sequence (P07333 582-910 limits assumed): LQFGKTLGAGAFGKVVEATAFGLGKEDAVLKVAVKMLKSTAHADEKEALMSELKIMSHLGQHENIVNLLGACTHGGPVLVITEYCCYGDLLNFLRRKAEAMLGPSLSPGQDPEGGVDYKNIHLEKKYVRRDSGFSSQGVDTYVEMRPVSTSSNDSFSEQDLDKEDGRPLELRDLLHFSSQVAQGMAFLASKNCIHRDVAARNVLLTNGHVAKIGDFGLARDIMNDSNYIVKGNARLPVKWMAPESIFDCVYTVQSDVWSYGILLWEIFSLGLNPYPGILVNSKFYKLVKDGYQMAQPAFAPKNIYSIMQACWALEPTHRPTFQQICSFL
Briefly: fms kinase assay (ELISA or Alphascreen). The following applies: read-out: fms inhibition of enzyme activity. In a few lines: as §1

For a further assay, the target named is hck (Homo sapiens, UniProt P08631). Description: hck kinase assay (ELISA or Alphascreen). Particulars: read-out: hck inhibition of enzyme activity. In a few lines: as §1
Chain of hck (P08631 262-515 limits assumed, species assumed): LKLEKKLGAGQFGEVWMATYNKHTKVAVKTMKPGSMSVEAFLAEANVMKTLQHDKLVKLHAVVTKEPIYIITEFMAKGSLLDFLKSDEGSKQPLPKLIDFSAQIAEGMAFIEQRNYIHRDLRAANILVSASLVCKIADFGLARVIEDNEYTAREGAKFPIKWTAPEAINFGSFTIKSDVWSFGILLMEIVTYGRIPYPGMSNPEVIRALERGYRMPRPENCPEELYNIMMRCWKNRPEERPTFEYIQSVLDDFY
A further assay has as its target T5, Zap70 (Homo sapiens, UniProt P43403).
T5 sequence (P43403 338-600 limits assumed): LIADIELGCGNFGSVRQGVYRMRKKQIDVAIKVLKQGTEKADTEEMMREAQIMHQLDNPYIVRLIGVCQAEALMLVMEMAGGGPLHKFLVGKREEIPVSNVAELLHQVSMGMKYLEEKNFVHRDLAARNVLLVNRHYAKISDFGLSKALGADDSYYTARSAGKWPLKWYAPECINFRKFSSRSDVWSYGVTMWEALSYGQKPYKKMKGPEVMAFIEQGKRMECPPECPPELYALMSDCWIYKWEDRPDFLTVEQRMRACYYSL
Description: Zap70 kinase assay (ELISA or Alphascreen). The following applies: read-out: Zap70 inhibition of enzyme activity. Summed up: as §1

Chain of fes (P07332 561-822 limits assumed, species assumed): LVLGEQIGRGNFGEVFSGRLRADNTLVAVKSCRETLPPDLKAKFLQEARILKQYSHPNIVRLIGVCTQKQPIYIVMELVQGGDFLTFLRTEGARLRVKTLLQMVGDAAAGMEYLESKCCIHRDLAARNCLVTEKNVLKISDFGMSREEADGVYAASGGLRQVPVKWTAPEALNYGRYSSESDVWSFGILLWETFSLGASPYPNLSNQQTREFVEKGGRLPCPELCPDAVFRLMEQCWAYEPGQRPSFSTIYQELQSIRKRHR

Take `O=C(NCc1ccco1)c1cncc(-c2ccc(O)cc2)c1`: the inhibition at 10 µM on human JAK2 is under 50%; on human JAK3, under 50%; at abl, under 50%; at fes, under 50%; on fms it was at least 50%; at hck it was under 50%. The inhibition at 10 µM at Zap70 was under 50%.

On to `Cc1cc(-c2cncc(C(=O)NCc3ccncc3)c2)cc(C)c1O`, for which the inhibition at 10 µM on human JAK2 is under 50%; on human JAK3 it was under 50%; on abl, under 50%; on fes it was under 50%; on fms, at least 50%; on hck, under 50%. For the same molecule, on Zap70, the inhibition at 10 µM was under 50%.

Consider `Cc1cc(-c2cncc(C(=O)NCc3ccco3)c2)cc(C)c1O`, for which the inhibition at 10 µM on human JAK2, at human JAK3, on abl, at fes, at fms and at hck was under 50% each time. Further, the inhibition at 10 µM at Zap70 is at least 50%.

As for `Cc1cc(-c2cncc(C(=O)NC(C)C)c2)cc(C)c1O`, the inhibition at 10 µM on human JAK2, on human JAK3, at abl, on fes, at fms and at hck was under 50% throughout. Further, the inhibition at 10 µM on Zap70 was at least 50%.

`COc1cc(-c2cncc(C(=O)Nc3cc(F)ccc3C)c2)c(Cl)c(OC)c1OC`: the inhibition at 10 µM at human JAK2 was under 50%; at human JAK3, under 50%; at abl it was under 50%; at fes, under 50%; at fms it was at least 50%; at hck it was at least 50%. The inhibition at 10 µM at Zap70 was under 50%.

On to `COc1ccc(NC(=O)c2cncc(-c3cccnc3)c2)c(OC)c1`, for which the inhibition at 10 µM at human JAK2 is at least 50%; on human JAK3, at least 50%; at abl it was under 50%; at fes it was under 50%; at fms it was at least 50%; on hck, under 50%. Moreover, the inhibition at 10 µM at Zap70 was under 50%.

Turning to `CN(C)CCNC(=O)c1cncc(-c2ccc(F)cc2)c1`, the inhibition at 10 µM at human JAK2, at human JAK3, at abl, at fes, on fms and at hck was under 50% throughout. The inhibition at 10 µM at Zap70 was under 50%.

For `COc1cccc([C@H](C)NC(=O)c2cncc(-c3ccc(F)cc3)c2)c1`, the inhibition at 10 µM on human JAK2, on human JAK3, on abl, on fes, on fms and at hck was under 50% each time. Also, the inhibition at 10 µM on Zap70 is at least 50%.

`COc1cc(CNC(=O)c2cncc(-c3cc(OC)c(OC)c(OC)c3Cl)c2)cc(OC)c1`: the inhibition at 10 µM is at least 50% on human JAK2; under 50% at human JAK3; under 50% at abl; under 50% on fes; under 50% on fms; under 50% on hck. For the same molecule, the inhibition at 10 µM at Zap70 was at least 50%.

On to `COc1cc(CNC(=O)c2cncc(-c3cccc(OC)c3)c2)cc(OC)c1`, for which the inhibition at 10 µM on human JAK2, on human JAK3, at abl, at fes, on fms and on hck was under 50% throughout. For the same molecule, the inhibition at 10 µM on Zap70 was at least 50%.

For the molecule `COc1cccc(-c2cncc(C(=O)NCc3ccco3)c2)c1`, the inhibition at 10 µM on human JAK2, on human JAK3, on abl, on fes, on fms and on hck was under 50% throughout. For the same molecule, the inhibition at 10 µM at Zap70 is at least 50%.

With `COc1ccc(CNC(=O)c2cncc(-c3cccc(OC)c3)c2)cc1`, the inhibition at 10 µM at human JAK2, on human JAK3, on abl, at fes, at fms and at hck was under 50% each time. For the same molecule, the inhibition at 10 µM on Zap70 was at least 50%.

On to `COc1cccc(-c2cncc(C(=O)NCc3ccc(C)cc3)c2)c1`, for which the inhibition at 10 µM at human JAK2, at human JAK3, at abl, on fes, on fms and on hck was under 50% each time. On Zap70, the inhibition at 10 µM was at least 50%.

Take `COc1cccc(-c2cncc(C(=O)NCCc3ccccc3)c2)c1`: the inhibition at 10 µM at human JAK2, at human JAK3, at abl, at fes, at fms and on hck was under 50% throughout. In addition, the inhibition at 10 µM at Zap70 was at least 50%.

Take `COc1cccc(-c2cncc(C(=O)N[C@@H](C)c3cccc(OC)c3)c2)c1`: the inhibition at 10 µM on human JAK2, on human JAK3, at abl, at fes, at fms and at hck was under 50% each time. Further, at Zap70, the inhibition at 10 µM is at least 50%.

On to `COc1cccc(-c2cncc(C(=O)Nc3cc(C)ccc3C)c2)c1`, for which the inhibition at 10 µM on human JAK2 was under 50%; at human JAK3, under 50%; on abl, under 50%; on fes, under 50%; at fms, under 50%; on hck, at least 50%. In addition, the inhibition at 10 µM on Zap70 is at least 50%.

In the case of `COc1cc(-c2cncc(C(=O)Nc3ccc(F)cc3C)c2)ccc1O`, the inhibition at 10 µM was under 50% on human JAK2; under 50% on human JAK3; at least 50% at abl; under 50% on fes; under 50% on fms; at least 50% on hck. At Zap70, the inhibition at 10 µM is under 50%.
